In patent publication US11833149B2, “Pulse dosing regimen and methods of treatment” (OSI Pharmaceuticals, LLC, priority 2016, dated 2023):
“Also recorded” adds a separate entry of the source.

Legend:
[1] = pH of approximately 2; over the pH range of 1.4 to 9.6; cited from earlier work
[2] = Phase 1 study: pharmacokinetic analysis of plasma (LC-MS/MS); format: in vivo, patients
Method: Pharmacokinetic analysis: Whole-blood samples for plasma were collected at prescheduled time points for pharmacokinetic (PK) analysis. Plasma levels of erlotinib were determined using a validated liquid chromatography-tandem mass spectrometry assay. […] MS detection was using an AB SCIEX API 4000 triple quadrupole mass spectrometer operating in positive ion electrospray ionization (ESI) mode. Standard PK parameters were calculated using a noncompartmental method (WiNNonlin, Pharsight).

[3] = in vivo
Method: (§2) Toxicity assessments: Patients were assessed five times during cycle 1 (28 days) and then every 21 days thereafter. Patient history, physical examination, complete blood count and serum chemistries were performed at each visit. Toxicity was graded according to the National Cancer Institute Common Terminology Criteria for Adverse Events (NCI CTCAE), version 4.

[4] = tested on: EGFR-mutant lung cancers with CNS involvement; settings: median dose erlotinib 1500 mg once weekly (Grommes et al.); cited from earlier work
[5] = Phase 1 dose-escalation study of pulse-continuous erlotinib: DLT, MTD, adverse events
Method: as §2

[6] = tested on: brain metastases; test: Phase 1 study of pulse-continuous erlotinib: central nervous system activity; format: in vivo, patients
From the text: (§1) The study was registered at clinicaltrials.gov (NCT01967095). […] All patients provided written informed consent.
Central nervous system activity: A brain MRI was required at enrollment.

[7] = cited from earlier work
[8] = cited from earlier work; remark: listed apart in the source
[9] = tested on: EGFR-mutant lung cancers; test: Phase 1 study of pulse-continuous erlotinib: response (RECIST 1.1) and progression-free survival; format: in vivo, patients
Method: as §1
Prior cytotoxic chemotherapy was allowed. Patients were required to have measurable disease per RECIST (Response Evaluation Criteria in Solid Tumours), version 1.1). […] Patients with clinically stable brain metastases, either treated or untreated, were eligible.
Response assessments: Response to therapy was assessed by interval imaging every 6 weeks with a CT scan with response evaluated per RECIST 1.1. After six cycles on treatment, patients could reduce the radiographic assessments to every 4 cycles (12 weeks).
Statistical Analysis: Descriptive statistics were used to summarize the clinical characteristics of the patients. Progression-free survival was estimated using the Kaplan-Meier method, and defined as the time from start of study therapy until progression or death. […] Response rates were calculated using binomial proportions and exact 95% CIs. All statistical analyses were performed using R 3.2.2 (R Development Core Team) including the “survival” and “Hmisc” packages.

[10] = erlotinib 1500 mg once weekly (Clarke et al.)

## C#Cc1cccc(Nc2ncnc3cc(OCCOC)c(OCCOC)cc23)c1.Cl [Erlotinib hydrochloride]
[1]
  maximal aqueous solubility: approximately 0.4 mg/mL

## C#Cc1cccc(Nc2ncnc3cc(OCCOC)c(OCCO)cc23)c1 [OSI-420]
[2]; in vivo
  dose-dependence of metabolite with increasing pulse doses of erlotinib: no significant dose-dependence

## C#Cc1cccc(Nc2ncnc3cc(OCCOC)c(OCCOC)cc23)c1 [erlotinib, N-(3-ethynylphenyl)-6,7-bis(2-methoxyethoxy)-4-quinazolinamine]
[3]; human
  ALT elevated Grade 1 (% of patients): (18%)
  ALT elevated Grade 1 (patients): 6
  ALT elevated Grade 2 (% of patients): (3%)
  ALT elevated Grade 2 (patients): 1
  ALT elevated Grade 3 (% of patients): (3%)
  ALT elevated Grade 3 (patients): 1
  ALT elevated Grade 4 (patients): 0
  ALT elevated Total (any grade) (% of patients): (24%)
  ALT elevated Total (any grade) (patients): 8
  AST increased Grade 1 (% of patients): (15%)
  AST increased Grade 1 (patients): 5
  AST increased Grade 2 (% of patients): (3%)
  AST increased Grade 2 (patients): 1
  AST increased Grade 3 (patients): 0
  AST increased Grade 4 (patients): 0
  AST increased Total (any grade) (% of patients): (18%)
  AST increased Total (any grade) (patients): 6
  Alopecia Grade 1 (% of patients): (21%)
  Alopecia Grade 1 (patients): 7
  Alopecia Grade 2 (patients): 0
  Alopecia Grade 3 (patients): 0
  Alopecia Grade 4 (patients): 0
  Alopecia Total (any grade) (% of patients): (21%)
  Alopecia Total (any grade) (patients): 7
  Anemia Grade 1 (% of patients): (6%)
  Anemia Grade 1 (patients): 2
  Anemia Grade 2 (% of patients): (3%)
  Anemia Grade 2 (patients): 1
  Anemia Grade 3 (% of patients): (3%)
  Anemia Grade 3 (patients): 1
  Anemia Grade 4 (patients): 0
  Anemia Total (any grade) (% of patients): (12%)
  Anemia Total (any grade) (patients): 4
  Anorexia Grade 1 (% of patients): (9%)
  Anorexia Grade 1 (patients): 3
  Anorexia Grade 2 (% of patients): (6%)
  Anorexia Grade 2 (patients): 2
  Anorexia Grade 3 (patients): 0
  Anorexia Grade 4 (patients): 0
  Anorexia Total (any grade) (% of patients): (15%)
  Anorexia Total (any grade) (patients): 5
  Bilirubin increased Grade 1 (% of patients): (12%)
  Bilirubin increased Grade 1 (patients): 4
  Bilirubin increased Grade 2 (% of patients): (15%)
  Bilirubin increased Grade 2 (patients): 5
  Bilirubin increased Grade 3 (% of patients): (6%)
  Bilirubin increased Grade 3 (patients): 2
  Bilirubin increased Grade 4 (patients): 0
  Bilirubin increased Total (any grade) (% of patients): (32%)
  Bilirubin increased Total (any grade) (patients): 11
  Diarrhea Grade 1 (% of patients): (71%)
  Diarrhea Grade 1 (patients): 24
  Diarrhea Grade 2 (% of patients): (3%)
  Diarrhea Grade 2 (patients): 1
  Diarrhea Grade 3 (% of patients): (12%)
  Diarrhea Grade 3 (patients): 4
  Diarrhea Grade 4 (patients): 0
  Diarrhea Total (any grade) (% of patients): (85%)
  Diarrhea Total (any grade) (patients): 29
  Dry skin Grade 1 (% of patients): (29%)
  Dry skin Grade 1 (patients): 10
  Dry skin Grade 2 (patients): 0
  Dry skin Grade 3 (patients): 0
  Dry skin Grade 4 (patients): 0
  Dry skin Total (any grade) (% of patients): (29%)
  Dry skin Total (any grade) (patients): 10
  Fatigue Grade 1 (% of patients): (24%)
  Fatigue Grade 1 (patients): 8
  Fatigue Grade 2 (% of patients): (12%)
  Fatigue Grade 2 (patients): 4
  Fatigue Grade 3 (patients): 0
  Fatigue Grade 4 (patients): 0
  Fatigue Total (any grade) (% of patients): (35%)
  Fatigue Total (any grade) (patients): 12
  Mucositis Grade 1 (% of patients): (24%)
  Mucositis Grade 1 (patients): 8
  Mucositis Grade 2 (% of patients): (9%)
  Mucositis Grade 2 (patients): 3
  Mucositis Grade 3 (% of patients): (3%)
  Mucositis Grade 3 (patients): 1
  Mucositis Grade 4 (patients): 0
  Mucositis Total (any grade) (% of patients): (35%)
  Mucositis Total (any grade) (patients): 12
  Nausea Grade 1 (% of patients): (29%)
  Nausea Grade 1 (patients): 10
  Nausea Grade 2 (% of patients): (9%)
  Nausea Grade 2 (patients): 3
  Nausea Grade 3 (% of patients): (6%)
  Nausea Grade 3 (patients): 2
  Nausea Grade 4 (patients): 0
  Nausea Total (any grade) (% of patients): (44%)
  Nausea Total (any grade) (patients): 15
  Paronychia Grade 1 (% of patients): (12%)
  Paronychia Grade 1 (patients): 4
  Paronychia Grade 2 (% of patients): (6%)
  Paronychia Grade 2 (patients): 2
  Paronychia Grade 3 (patients): 0
  Paronychia Grade 4 (patients): 0
  Paronychia Total (any grade) (% of patients): (18%)
  Paronychia Total (any grade) (patients): 6
  Pruritis Grade 1 (% of patients): (32%)
  Pruritis Grade 1 (patients): 11
  Pruritis Grade 2 (patients): 0
  Pruritis Grade 3 (patients): 0
  Pruritis Grade 4 (patients): 0
  Pruritis Total (any grade) (% of patients): (32%)
  Pruritis Total (any grade) (patients): 11
  Rash Grade 1 (% of patients): (62%)
  Rash Grade 1 (patients): 21
  Rash Grade 2 (% of patients): (24%)
  Rash Grade 2 (patients): 8
  Rash Grade 3 (% of patients): (3%)
  Rash Grade 3 (patients): 1
  Rash Grade 4 (patients): 0
  Rash Total (any grade) (% of patients): (88%)
  Rash Total (any grade) (patients): 30
  Vomiting Grade 1 (% of patients): (26%)
  Vomiting Grade 1 (patients): 9
  Vomiting Grade 2 (% of patients): (3%)
  Vomiting Grade 2 (patients): 1
  Vomiting Grade 3 (% of patients): (3%)
  Vomiting Grade 3 (patients): 1
  Vomiting Grade 4 (patients): 0
  Vomiting Total (any grade) (% of patients): (32%)
  Vomiting Total (any grade) (patients): 11
  patients removed for diarrhea: 2
  patients removed for hyperbilirubinemia: 1
  patients removed for mucositis: 1
  patients removed for possible pneumonitis: 1
  patients removed for transaminitis: 1
[3]
  patients removed from the study for toxicity: Six
  patients requiring a dose reduction of the pulse dose: three of sixteen
  tolerability: well tolerated
[4]
  patients with partial response in the CNS: Six of nine
[5]; all 34 patients
  deaths on study: no deaths
  grade four or five toxicities: No grade four or five toxicities
[5]; pulse on days 1 and 2 with 50 mg erlotinib on days 3 to 7
  MTD (pulse dose): 1200 mg
[6]; 6 patients with untreated brain metastases
  patients with evidence of tumor regression in the CNS: 6
[6]; 16 patients with CNS imaging within three months of coming off study for progression
  radiographic evidence of new or progressing brain metastases: none
[6]; all patients
  CNS progression on study treatment: none of the patients; also recorded: No patients
[2]; 600 mg to 1,350 mg, Cycle 1
  change of peak plasma concentration with increasing pulse doses: no significant increases
[2]; 4 hr post-administration, Week 2
  range of peak plasma concentration: 2,600-9355 ng/mL
[2]; 4 hr post-administration, after the second day of weekly pulse dose at Week 2
  median peak plasma concentration: 5,393 ng/mL
[2]; before the pulse dosing at the start of week 4
  median plasma trough concentration: 435 ng/mL
[2]; start of week 4
  median plasma trough concentration: 1.1 µM
  range of plasma trough concentration: 29 to 1655 ng/mL
[7]; Togashi et al.
  cerebrospinal fluid (CSF) concentration as % of plasma concentration: 3-5%
[7]; [10]
  concurrent CSF concentration: 120 nM
  peak plasma concentration: 11,300 nM
[8]; once weekly, unselected patients with advanced lung cancers (Milton et al.), MTD not reached
  maximum tolerated dose (MTD): ≥ 2000 mg
[8]; twice-weekly pulse dose (Chia et al.), DLT of rash at higher dose levels
  MTD: 1000 mg
[9]; 34 patients
  patients with complete response: one
  patients with confirmed partial responses: Twenty-four
[9]; 95% CI 5.8-15.4 months
  median progression-free survival: 9.9 months
[9]; intent to treat, 34 patients, 95% CI 60-84%
  overall response rate: 74%
[9]; patients with radiographic assessment
  change in the sum of target lesions: All patients had a decrease
